# From patent US9028845B2, “Chimeric immunomodulatory compounds and methods of using the same-IV” (Dynavax Technologies Corporation, priority 2001, dated 2015)
# Tested on: human PBMCs
# Assay: Human PBMC cytokine response assay (IFN-γ and IFN-α in cell-free medium by ELISA), with or without cPLGA;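 on IFN-α (pg/ml) mean: 20 µg/mL compound for 24 hours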;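 on IFN-γ (pg/ml) mean: 20 µg/mL compound for 24 hours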
# Format: cell-based
# Conditions: for immunomodulatory activity (IFN-γ / IFN-α secretion), in words: used alone (no cPLGA)
# [1] = mean of donors 110, 112, 119, 120, Table 14
# [2] = Table 24, mean of donors 28234-28237
# [3] = mean of donors 28185-28188, Table 15
substance,measurement,setting,value
5′-TCGTC-3′-HEG-5′-TCGTC-3′-HEG-5′-TCGTC-3′-HEG-5′-TCGTC-3′ [Compound C-43],IFN-α,"Table 10, donor 28042",0 pg/mL
same,IFN-γ,"Table 10, donor 28042",128 pg/mL
same,IFN-α,"Table 10, donor 28043",14 pg/mL
same,IFN-γ,"Table 10, donor 28043",536 pg/mL
same,IFN-α,"Table 10, donor 28044",20 pg/mL
same,IFN-γ,"Table 10, donor 28044",566 pg/mL
same,IFN-α,"Table 10, donor 28045",0 pg/mL
same,IFN-γ,"Table 10, donor 28045",16 pg/mL
same,IFN-α mean,"Table 10, mean of donors",8 pg/mL
same,IFN-γ mean,"Table 10, mean of donors",312 pg/mL
same,"activity when formulated with cPLGA, in words",,induced considerable IFN-γ and IFN-α when formulated with cPLGA
same,"IFN-γ induction, in words",used alone,induce IFN-γ when used alone
5′-TCGAACG-3′-HEG-5′-TCGAACG-3′-HEG-5′-TCGAACG-3′ [Compound C-50],IFN-α,"Table 10, donor 28042",36 pg/mL
same,IFN-γ,"Table 10, donor 28042",1324 pg/mL
same,IFN-α,"Table 10, donor 28043",137 pg/mL
same,IFN-γ,"Table 10, donor 28043",1292 pg/mL
same,IFN-α,"Table 10, donor 28044",193 pg/mL
same,IFN-γ,"Table 10, donor 28044",509 pg/mL
same,IFN-α,"Table 10, donor 28045",35 pg/mL
same,IFN-γ,"Table 10, donor 28045",192 pg/mL
same,IFN-α mean,"Table 10, mean of donors",100 pg/mL
same,IFN-γ mean,"Table 10, mean of donors",829 pg/mL
same,IFN-α,"donor 110, Table 14",716 pg/mL
same,IFN-γ,"donor 110, Table 14",1096 pg/mL
same,IFN-α,"donor 112, Table 14",84 pg/mL
same,IFN-γ,"donor 112, Table 14",264 pg/mL
same,IFN-α,"donor 119, Table 14",838 pg/mL
same,IFN-γ,"donor 119, Table 14",52 pg/mL
same,IFN-α,"donor 120, Table 14",636 pg/mL
same,IFN-γ,"donor 120, Table 14",48 pg/mL
same,IFN-α (pg/ml) mean,[1],569 pg/mL
same,IFN-γ (pg/ml) mean,[1],365 pg/mL
same,"IFN-α induction, in words",used alone,generated more IFN-α than CICs containing a 5′-TCGT-3′
same,"immunomodulatory activity (IFN-γ / IFN-α secretion), in words",,more active than other CG-containing CICs
"5′-TGACTGTGAAGGTTAGAGATGA-3′ (SEQ ID NO: 136) (listed as DNA, chemistry not fully specified) [Compound P-8, reference compound]",IFN-α,"Table 13, donor 28156",16 pg/mL
same,IFN-γ,"Table 13, donor 28156",255 pg/mL
same,IFN-α,"Table 13, donor 28157",9 pg/mL
same,IFN-γ,"Table 13, donor 28157",20 pg/mL
same,IFN-α,"Table 13, donor 28158",24 pg/mL
same,IFN-γ,"Table 13, donor 28158",31 pg/mL
same,IFN-α,"Table 13, donor 28159",8 pg/mL
same,IFN-γ,"Table 13, donor 28159",31 pg/mL
same,IFN-α mean,"Table 13, mean of donors",14 pg/mL
same,IFN-γ mean,"Table 13, mean of donors",84 pg/mL
(5′-TCGTCGA-3′-TEG)2-glycerol-TEG-5′-TCGTCGA-3′ [Compound C-103],IFN-α,"Table 24, donor 28234",16 pg/mL
same,IFN-γ,"Table 24, donor 28234",21 pg/mL
same,IFN-α,"Table 24, donor 28235",21 pg/mL
same,IFN-γ,"Table 24, donor 28235",44 pg/mL
same,IFN-α,"Table 24, donor 28236",126 pg/mL
same,IFN-γ,"Table 24, donor 28236",250 pg/mL
same,IFN-α,"Table 24, donor 28237",213 pg/mL
same,IFN-γ,"Table 24, donor 28237",1854 pg/mL
same,IFN-α mean,[2],94 pg/mL
same,IFN-γ mean,[2],542 pg/mL
same,"IFN-α induction, in words",used alone,HEG (C-94)>TEG (C-103)>C3 (C-104)=no linker (C-28)
5′-TCG-3′-(ab)3-5′-T-3′ [Compound C-91],IFN-a,"donor 28185, Table 15",9 pg/mL
same,IFN-g,"donor 28185, Table 15",3 pg/mL
same,IFN-a,"donor 28186, Table 15",46 pg/mL
same,IFN-g,"donor 28186, Table 15",4 pg/mL
same,IFN-a,"donor 28187, Table 15",37 pg/mL
same,IFN-g,"donor 28187, Table 15",6 pg/mL
same,IFN-a,"donor 28188, Table 15",4 pg/mL
same,IFN-g,"donor 28188, Table 15",7 pg/mL
same,"activity when formulated with cPLGA, in words",,significant activity when formulated on cPLGA
same,IFN-a (pg/ml) mean,[3],24 pg/mL
same,IFN-g (pg/ml) mean,[3],5 pg/mL
same,IFN-a (pg/ml) ×2,"mean ×2, Table 15",48 pg/mL
same,IFN-g (pg/ml) ×4,"mean ×4, Table 15",20 pg/mL
same,"immunomodulatory activity (IFN-γ / IFN-α secretion), in words",,neither CIC was active on its own
